Measurements published in patent US10918743B2, “Contrast medium formulation and related preparation method” (GUERBET, priority 2013, dated 2021).

Assay: Thermodynamic equilibrium constant for the complexation of Gd3+
Type: physicochemical
Conditions: complexation of Gd^3+ by the ligand
Text: In the particular case where M represents a gadolinium ion, for the following chemical equilibria: [drawing 3] and DOTA+Gd ? [DOTA-Gd] (equation 2) the thermodynamic equilibrium constant of equation 1 (i.e. for the complexation of Gd^3+ by the ligand of formula I') is 10^14.9 (i.e. log ([…])=14.9), while the thermodynamic equilibrium constant of equation 2 (i.e. for the complexation of Gd^3+ by DOTA) is 10^25.6 (i.e. log ([…])=25.6). Thus, the formulations according to the invention go against the teachings of document U.S. Pat. No. 5,876,695 in particular, since the complex of DOTA with the gadolinium ion is more thermodynamically stable than the active complex.

O=C(O)CN1CCN(CC(=O)O)CCN(CC(=O)O)CCN(CC(=O)O)CC1 [DOTA, 1,4,7,10-tetraazacyclododecane-1,4,7,10-tetraacetic acid]
log (Ktherm), thermodynamic equilibrium constant: 25.6

O=C(CCC(C(=O)O)N1CCN(C(CCC(=O)NCC(O)CO)C(=O)O)Cc2cccc(n2)CN(C(CCC(=O)NCC(O)CO)C(=O)O)CC1)NCC(O)CO (centres unmarked) [ligand of formula I′]
log (Ktherm), thermodynamic equilibrium constant: 14.9
